Tests used:
[1] = Solubility in aqueous saline solution
[2] = Pharmacokinetics in tumor free Balb/C mice; assay type: in vivo; settings: Released from Compound 9; single injection 20 mg/kg Compound 9, Balb/C mice, plasma
Excerpt: Pharmacokinetic analysis was done using non-compartmental analysis (WinNonlin).

CCc1c2c(nc3ccc(O)cc13)-c1cc3c(c(=O)n1C2)COC(=O)[C@]3(O)CC
Solubility in Saline [1]: ^a7-ethyl-10-hydroxycamptothecin is not soluble in saline. | Terminal t 1/2 [2]: 14.2 h

Source: US20120171201A1
